Reference: article PMC12040169 (PLOS Biology, 2025)

Experiment: in vitro
Conditions: human, hela cells, % viability

Point of comparison: `NS(=O)(=O)c1ccc(NC(=O)/C(=C/c2ccc(Br)cc2)NC(=O)c2ccccc2)cc1` [CBK262109], viability at 28.5 h, 10 µM 105%. Against it:
- CC[C@H]1CN(S(C)(=O)=O)CC[C@H]1CC(=O)NCc1ccco1 [CBK289141] — lower, 89.2%
- CCOc1ccc(Nc2cc(Cl)nc(N)n2)cc1 [CBK288069] — lower, 98.7%
- CC(C)[C@@H](CO)Nc1cncc(-c2cccnc2)n1 [CBK065467] — lower, 98.5%
- O=C(CC1Nc2ccccc2NC1=O)Nc1ccc(F)c(Cl)c1 (centres unmarked) [CBK266381] — lower, 97%
- O=C(O)Cc1ccc(-c2ccccc2)cc1 [CBK011660] — lower, 104%
- CC(C)c1ccc(N2C(=O)[C@@H]3C[C@@H](NC(=O)c4ccnc(Cl)c4)CCN3C2=O)cc1 [CBK289544] — lower, 102%
- COC(=O)c1cn(C(=O)COc2ccc(Cl)cc2)c2ccccc12 [CBK262598] — lower, 87%
- Cn1c(CCNC(=O)C2CCCCC2)nc2cc([N+](=O)[O-])ccc21 [CBK268440] — higher, 106%
- OC1(c2cccnc2F)CCN(Cc2ccc(F)cc2F)CC1 [CBK284369] — lower, 82.6%
- Cc1cc(C(=O)N2CCc3c(sc4ncnc(N)c34)C2)c(C)s1 [CBK304980] — lower, 88.5%
- Oc1ccc(/C=N/N(Cc2ccccc2)Cc2ccccc2)cc1 [CBK261414] — lower, 98.2%
- Cc1ccc2c(c1)CN(C(=O)C1CC1C)CC1(CCN(C)CC1)O2 (centres unmarked) [CBK284833] — lower, 94.5%
- CSCCOc1cc(NC(C)C)ncn1 [CBK115889] — lower, 86.9%
- O=C(CCC(F)(F)F)NCc1csc(-c2ccccc2)n1 [CBK092342] — lower, 91%
- Cc1ccc(-c2csc(C3CN4CCCC4CO3)n2)s1 (centres unmarked) [CBK304113] — higher, 121%
- O=S(=O)([O-])c1cc(S(=O)(=O)O)ccc1Nc1cc2c(nc3ccccc3[n+]2-c2ccccc2)c2ccccc12 [CBK260997N] — lower, 102%
- COc1ccc(CCNC(=O)N(C)C2CCN(C)C2)cc1 (centres unmarked) [CBK156019] — lower, 100%
- O=C(O)CC1C(=O)NCCN1CC(c1ccccc1)c1ccccc1 (centres unmarked) [CBK286539] — lower, 77.5%
- Cc1cc2cc(CCNC(=O)C(=O)c3c[nH]c4ccccc34)c(O)nc2cc1C [CBK287511] — lower, 89.5%
- C[C@H](NC(=O)Cc1ccc(-c2ccccc2)cc1)c1nc2ccccc2[nH]1 [CBK296998] — lower, 98.5%
- COc1ccc(CNC(C)C2COc3ccccc3O2)c(OC)c1 (centres unmarked) [CBK074283G] — lower, 88.8%
- O=C(CC1CCN(C(=O)c2ccc3nsnc3c2)CC1)N1CCN(c2ccccc2)CC1 [CBK286266] — lower, 85.9%
- CC(C)c1noc(NCCc2cn3c(n2)CCCC3)n1 [CBK306444] — lower, 93.5%
- COC(=O)c1cccc(N(C)S(=O)(=O)c2sc3ccc(Cl)cc3c2C)c1 [CBK160390] — lower, 94.1%
- Cn1c(=S)[nH]c2c(-c3ccccc3)c[nH]c2c1=O [CBK288488] — lower, 103%
- O=C(COc1ccccc1C1CC(=O)Nc2ccc3ccccc3c21)Nc1ccccc1 (centres unmarked) [CBK265704] — lower, 97.3%
- CCC1CCc2c(sc(NC(=O)c3cnccn3)c2C(N)=O)C1 (centres unmarked) [CBK262649] — the same, 105%
- O=S(=O)(Oc1ccccc1)c1ccc2c(c1)Cc1cc(S(=O)(=O)Oc3ccccc3)ccc1-2 [CBK231928] — lower, 88.5%
- CSCCN1CCN(c2nccnc2Oc2ccc(F)cc2)CC1 [CBK083028T] — lower, 93.2%
- O=C1CCCCCN1CP(=O)(O)CCc1ccccc1 [CBK262313] — lower, 99.7%
- CC1(C#N)CCCN(C(=O)NC2CCN(Cc3cccc(O)c3)CC2)C1 (centres unmarked) [CBK306787] — lower, 88.2%
- C=CCn1c(-c2sc(NC(=O)CN3C(=C)c4ccccc4C3=O)nc2C)n[nH]c1=S [CBK297909] — lower, 84.4%
- N#Cc1ccc(CN2CCCN(S(=O)(=O)c3ccc(C(=O)c4ccccc4)cc3)CC2)cc1 [CBK062962] — lower, 89.9%
- Cc1cc(CN(C)Cc2cn(C)c3cc(F)ccc23)n[nH]1 [CBK281710] — lower, 89.6%
- O=C(O)c1ccc2c(c1)C(=O)N(c1ccc(C3(c4ccc(N5C(=O)c6ccc(C(=O)O)cc6C5=O)cc4)c4ccccc4-c4ccccc43)cc1)C2=O [CBK261195] — lower, 92.2%
- CN(C)CC1CCCCN1C(=O)C1C2CCCCC21 (centres unmarked) [CBK282087] — lower, 97.7%
- CCOC(=O)c1c2c([nH]c(=S)c1C#N)CCCC2 [CBK020049] — lower, 97.6%
- CCNC(=O)N1CC2(CCN(Cc3ccc4nsnc4c3)CC2)c2ccccc21 [CBK136968] — lower, 102%
- CC(=O)Nc1cccc(-c2nccnc2N2CCCCC2CCO)c1 (centres unmarked) [CBK036591] — lower, 101%
- CN(C)c1ccc(NC(=O)CC2S/C(=N/c3ccccc3)N(c3ccccc3)C2=O)cc1 (centres unmarked) [CBK265644] — lower, 92.7%
- COc1ccc(CCN2CCCN(c3nccc(OCc4ccc(Cl)c(Cl)c4)n3)CC2)cc1OC [CBK083965] — lower, 96.4%
- COc1ccc(-c2cccc(CN(Cc3ccc4c(c3)OCO4)CC(C)O)c2)cc1 (centres unmarked) [CBK286472] — higher, 107%
- Cc1ncccc1-c1cc2cccnc2n1CCC(=O)NC1CC1 [CBK282690] — higher, 106%
- Cc1nccn1CC(C)C(=O)NCCN(C)C1CCCCC1 (centres unmarked) [CBK282040] — lower, 102%
- CCCC(=O)c1ccc(S(=O)(=O)N2CCCN(Cc3ccc(F)cc3Cl)CC2)cc1 [CBK062917] — higher, 116%
- Cc1nc(C)c(C(=O)NCCN2CCCC2=O)s1 [CBK282222] — lower, 84.2%
- Nc1nc(=O)n([C@@H]2O[C@H](CO)[C@H](O)C2O)cc1I (some centres unmarked) [CBK201306] — higher, 107%
- Cc1ccc(COc2ccc(/C=N/NC(=O)CN3CCCCC3)cc2)cc1 [CBK262227] — lower, 103%
- CCOC(=O)c1ccc(NC(=O)C(C)Oc2ccccc2C)cc1 (centres unmarked) [CBK268660] — lower, 102%
- CCn1cc(CN(CCOC)C(=O)c2cc3c(Cl)cccc3[nH]2)cn1 [CBK306903] — lower, 91.5%
- CCOC(=O)C1CN(C(=O)N(CCN)Cc2ccc(Cl)cc2)CC1c1ccccc1 (centres unmarked) [CBK001682C] — lower, 97.8%
- CN(C)CCN(C)S(=O)(=O)c1ccc(C(C)(C)C)cc1 [CBK059035T] — lower, 94.7%
- O=C(Nc1ccc(N2CCCC2)c(F)c1)C1CC(=O)N(C2CC2)C1 (centres unmarked) [CBK281461] — lower, 100%
- Cc1ccc(=O)n(CC(=O)N2CCC[C@@H]3NC(=O)c4ccccc4OCCCCC[C@@H]32)n1 [CBK292100] — lower, 94%
- O=C(CN1C(=O)CCC1=O)NCCc1ccccc1 [CBK262326] — lower, 98.3%
- CCNc1cc2ccccc2c(-c2cccc(C(F)(F)F)c2)n1 [CBK085772] — lower, 101%
- O=C(NCc1ccccc1)c1ccc(NCc2ccccc2)c([N+](=O)[O-])c1 [CBK074547] — lower, 92.9%
- COc1cc(C(C)=O)ccc1OCCCN1CCC(O)(C(=O)c2cccc(C(F)(F)F)c2)CC1 [CBK024866C] — lower, 103%
- NC(=O)c1nc(-c2ccccc2)nc2c1[nH]c(=O)n2-c1cccc(Cl)c1 [CBK287544] — lower, 104%
- O=[N+]([O-])c1ccc(O)c(/C=N/Nc2nc(Nc3ccc(Cl)cc3)nc(N3CCOCC3)n2)c1 [CBK260918] — lower, 90.2%
- C[C@@H](NC(=O)N(Cc1ccc([N+](=O)[O-])cc1)CC(C)(C)N)c1cccc2ccccc12 [CBK004921] — lower, 102%
- Cc1cc(C)c(-n2nnnc2SCc2ccc(F)cc2)c(C)c1 [CBK100994] — lower, 103%
- Cc1ccc(NC(=O)NC(=O)C2CCN(CCc3ccc(F)cc3)CC2)cc1Cl [CBK035047] — lower, 89.5%
- Cc1ccc(S(=O)(=O)Nc2c(C(=O)N3CCN(C)CC3)[nH]c3ccccc23)cc1[N+](=O)[O-] [CBK050060] — lower, 90.1%
- OCCNc1nccnc1Cl [CBK089793] — higher, 114%
- CCOC(=O)C1(Cc2cc(-c3cccc(F)c3)no2)CCNCC1 [CBK284881] — lower, 89.4%
- O=C(O)c1cccc(N2C(=O)C3C4C=CC(CO)(O4)C3C2=O)c1 (centres unmarked) [CBK287066] — lower, 103%
- Cc1nc(C)c(CC(=O)N(C)CC2OCCc3ccccc32)s1 (centres unmarked) [CBK281478] — lower, 90.9%
- CCCN(CC(=O)NCc1ccco1)Cc1nnc(-c2ccco2)o1 [CBK305302] — higher, 111%
- c1cncc(-c2cncc(NCC3CCOCC3)n2)c1 [CBK037195] — lower, 92.7%
- O=c1c([N+](=O)[O-])c[nH]c2nc(-c3ccncc3)nn12 [CBK288531N] — lower, 87.8%
- O=[N+]([O-])c1ccc(N2CCN(CCO)CC2)cc1NCc1ccc(Cl)cc1 [CBK042201] — lower, 99.6%
- Cc1ccc(-n2c(C)c([N+](=O)[O-])c3ccc(O)c(CN(C)C)c32)cc1 [CBK115328] — lower, 88.8%
- Cc1ccc2nc(SCCC(=O)O)cc(C)c2c1 [CBK286861] — lower, 90.1%
- COc1ccc(-c2nnc(SCc3cc(=O)oc4cc(C)ccc34)n2CC(C)C)cc1 [CBK297518] — lower, 81.3%
- O=C(COc1cccc(Cl)c1)NCCc1ccc(S(=O)(=O)NC(=O)NC2CCCCC2)cc1 [CBK011798] — lower, 93.4%
- Cn1cc(Cl)c(C2CCCCCN2C(=O)c2cc(C3CC3)on2)n1 (centres unmarked) [CBK285120] — higher, 109%
- COc1ccc(-c2ccc3c(c2)OC2(CCN(C(=O)c4cc(OC)c(C)c(OC)c4)CC2)CC3=O)cn1 [CBK169424] — higher, 107%
- O=C(Cn1ccc2ccnc(-c3cccs3)c21)NCc1ccccn1 [CBK284735] — lower, 95.9%
- CCC(Sc1nc(C)cc(C)n1)C(=O)N1c2ccccc2Sc2ccccc21 (centres unmarked) [CBK263018] — lower, 92.9%
- COc1ccc(N2C(=O)CC(N3CCN(c4ccc(S(=O)(=O)N5CCCC5)cc4)CC3)C2=O)cc1 (centres unmarked) [CBK268851] — lower, 85.1%
- O=C(NCc1ccccn1)Nc1cccc(Cl)c1 [CBK058569] — lower, 95.9%
- CN(C)C(=O)CN1N=C(C(C)(C)C)Cn2c(cc3sccc32)C1=O [CBK284116] — lower, 89.5%
- CC(=O)N1CCc2ccc(NC(=O)c3cc(-c4ccc(C(=O)N5CCOCC5)cc4)cnc3N)cc21 [CBK160205] — lower, 89.9%
- CC(=O)Nc1ccc(C(=O)N2CCCC(c3cccc(Cc4ccccc4Cl)n3)C2)cc1 (centres unmarked) [CBK286126] — higher, 109%
